Source: patent US20140105829A1, “THERAPEUTIC NANOEMULSION FORMULATION FOR THE TARGETED DELIVERY OF DOCETAXEL AND METHODS OF MAKING AND USING THE SAME” (Nemucore Medical Innovations, Inc., priority 2012, published 2014)

Tests used:
[1] = Dose range finding plasma pharmacokinetic study; type: in vivo; conditions: CD-1 mice, iv; for AUC0-∞ / AUClast / Cl / Cmax / MRT / Tmax / Vd / t1/2: plasma docetaxel
Method: A dose range finding (DRF) study was conducted to determine the pharmacokinetic profile of folate receptor-targeted nanoemulsion formulations according to the disclosure administered to CD-1 mice at dose levels ranging from 1 mg/kg to 10 mg/kg. […] Blood was collected at 5 min, 30 min, 1 hr, 2 hr, 4 hr, 6 hr, 8 hr, 12 hr, and 24 hr after injection. Docetaxel concentration in the plasma was measured using a liquid chromatography-mass spectrometer (LC-MS/MS).
Pharmacokinetic parameters were calculated by non-compartmental analysis using Phoenix WinNonlin 6.2 version.

SKOV3 cells = assay: MTT cytotoxicity assay, SKOV3; type: cell-based, human; conditions: 72 hr treatment, mean±SD, n=8
Method: (§1) A tetrazolium (MTT) assay was performed, which measures the activity of cellular enzymes that reduces the MTT dye to insoluble formazan. SKOV3 and SKOV3TR cells were treated with corresponding test nanoemulsions or control solutions as indicated below in Table V. Polyethylenimine at 50 μg/ml was used as a positive control for cytotoxicity. […] After the completion of treatment, cells were incubated with MTT reagent (50 μg/well) for 2 hr, the resulting formazan crystals were dissolved in dimethyl sulfoxide ([…]) and measured at 570 nm in the Plate reader (Synergy HT, Biotek Instruments, Winooski, Vt.).
(§2) All IC50 values were obtained by analyzing the MTT assays results using Graphpad Prism 5 scientific data analysis software.

SKOV3TR cells = assay: MTT cytotoxicity assay, SKOV3TR; type: cell-based, human; conditions: 72 hr treatment, mean±SD, n=8, Pgp-expressing multidrug resistant cells
Method: In order to determine if the nanoemulsion formulations according to the disclosure produce a cytotoxic effect, the following experiments were done on SKOV3 and SKOV3TR cells. SKOV3TR cells express P-glycoprotein (Pgp), which produces chemotherapeutic agent efflux out of the cell and is associated with multidrug resistant cancer cells.
as §1, §2

[2] = tested on: subcutaneous SKOV3 tumors; parameters: species or system Nu/Nu mice; conditions: mouse, in vivo, iv
Description: Three female Nu/Nu mice (Charles River Laboratories, Cambridge, Mass.) each weighing approximately 20 g and bearing subcutaneous SKOV3 tumors (human ovary cancer cells, American Type Culture Collection (ATCC), Manassas, Va.) […], were used as test subjects. The first mouse was intravenously injected with gadopentetic acid containing a 0.072 mmol/kg dose of Gd-DTPA-PE (Magnevist™). The second mouse was intravenously injected with a non-targeted Gd-labeled nanoemulsion formulation of the present disclosure containing a 0.072 mmol/kg dose of Gd-DTPA-PE. The third mouse was intravenously injected with a folate receptor-targeted Gd-labeled nanoemulsion formulation of the present disclosure containing a 0.072 mmol/kg dose of the gadolinium-based MRI contrasting agent Gd-DTPA-PE. All three mice were full body scanned and imaged using a Bruker Biospec 20/70 MRI machine over a period of 24 hr.

[3] = 1 mg/kg docetaxel as folate receptor-targeted nanoemulsion formulation
[4] = 5 mg/kg docetaxel as folate receptor-targeted nanoemulsion formulation
[5] = 10 mg/kg docetaxel as folate receptor-targeted nanoemulsion formulation

In the case of docetaxel [Docetaxel in solution], the “AUC0-∞” value [1, 3] is reported as 475 ± 34 ng·h/mL, the “AUClast” value [1, 3] is reported as 789 ± 667 ng·h/mL and the “Cl” value [1, 3] is reported as 35.17 ± 2.55 mL/min/kg. The “Cmax” value [1, 3] was 2125 ± 1181 ng/mL, the “MRT” value [1, 3] was 1.53 ± 0.3 h and the “Tmax” value [1, 3] was 4.98 min. The “Vd” value [1, 3] was 13.275 ± 7.029 L/kg, the “t1/2” value [1, 3] was 4.29 ± 2 h and the “dose dependence of plasma docetaxel pharmacokinetics” value ([1]; 1 mg/kg to 10 mg/kg, folate receptor-targeted nanoemulsion formulation) was “linear pharmacokinetics from 1 mg/kg to 5 mg/kg”. For the same compound, the “AUC0-∞” value [1, 4] was 19095 ± 24050 ng·h/mL, the “AUClast” value [1, 4] was 19026 ± 24077 ng·h/mL and the “Cl” value [1, 4] was 15.4 ± 16.77 mL/min/kg. For the same compound, the “Cmax” value [1, 4] was 38267 ± 31757 ng/mL, the “MRT” value [1, 4] was 2.25 ± 0.5 h and the “Tmax” value [1, 4] was 4.98 min. For the same compound, the “Vd” value [1, 4] was 9.074 ± 12.083 L/kg, the “t1/2” value [1, 4] was 4.9 ± 2.6 h and the “AUC0-∞” value [1, 5] was 16719 ± 28251 ng·h/mL. The “AUClast” value [1, 5] was 16653 ± 28251 ng·h/mL, the “Cl” value [1, 5] was 16 ± 12.5 mL/min/kg and the “Cmax” value [1, 5] was 52229 ± 28251 ng/mL. For the same compound, the “MRT” value [1, 5] was 2.6 ± 1 h, the “Tmax” value [1, 5] was 4.98 min and the “Vd” value [1, 5] was 5.801 ± 5.151 L/kg. For the same compound, the “t1/2” value [1, 5] was 3.7 ± 1 h, the IC50 (SKOV3 cells) was 1 ± 1.3 nM and the IC50 (SKOV3TR cells) was 27000 nM.

With `CNC[C@H](O)[C@@H](O)[C@H](O)[C@H](O)CO.CNC[C@H](O)[C@@H](O)[C@H](O)[C@H](O)CO.O=C([O-])CN(CCN(CC(=O)[O-])CC(=O)O)CCN(CC(=O)[O-])CC(=O)O.[Gd+3]` [Magnevist, gadopentetic acid] the “time by which tumor signal cleared to near baseline” value [2] was at most 6 h.
